# Values joined by “and” are separate entries in the source; they are usually repeats but may differ in a detail not shown here. Equal values may be shown once. Read-outs that look alike come from different tables or passages of the source.
# What was measured:
# S. saprophyticus = test: MIC and MBC, broth microdilution; format: cell-based, Staphylococcus saprophyticus; conditions: geometric mean, S. saprophyticus (n = 3)
# Procedure: (§1) Seven clinical isolates of Staphylococcus spp. including 2 S. aureus, 3 S. saprophyticus, and 2 S. epidermidis were used. They were isolated from urine samples in our previous study. Two reference strains (S. aureus ATCC1026 and S. epidermidis ATCC35984) obtained from the American Type Culture Collection were also included. They were kept in the mixture of glycerol and Mueller Hinton Broth (MHB) (1:1) at −20°C, and the activation was achieved using the streak technique on Mueller Hinton agar (MHA) medium.
# (§2) The MICs of ATBs and NPs were determined by the broth microdilution method as previously described. NPs and ATBs were, respectively, prepared at 4096 µg/mL and 512 µg/mL and serially diluted twofold with MHB in a 96-well microplate at a volume of 100 µL. Then, the wells were filled with 100 µL of inoculum (1.5 × 10^6 CFU/mL) to give final concentrations ranging from 1024 µg/mL to 0.5 µg/mL and 128 µg/mL to 0.062 µg/mL of NPs and ATBs, respectively. The microplates were incubated for 24 h at 37°C. Wells containing only bacterial inoculum were used as the negative control. After incubation, a volume of 40 µL of INT solution (0.2 mg/mL) was added to each well, and the microplate was incubated at 37°C for 30 min. Viable bacteria cells change the yellow dye of INT to a pink color. The MIC was considered as the lowest concentration of the sample at which there was no change in the coloration of the medium, corresponding to the complete inhibition of microbial growth.
# (§3) All tests were performed in triplicate.
# S. epidermidis = test: MIC and MBC, broth microdilution; format: cell-based, Staphylococcus epidermidis; conditions: geometric mean, S. epidermidis (n = 3)
# Procedure: as §1, §2, §3
# S. aureus biofilm [1] = test: Biofilm inhibition assay (MBIC, MTT); format: cell-based, Staphylococcus aureus; conditions: geometric mean, S. aureus (n = 3); for minimal effective concentration: Staphylococcus aureus, 24 h
# Procedure: (§4) The biofilm formation inhibitory activity of NPs and ATBs was carried out according to the method previously described. A total of 100 µL of bacterial inoculum (1.5 × 10^6 CFU/mL) was used, and 100 µL of each sample was added to the microplate to achieve final concentrations ranging from 0.25 µg/mL to 128 µg/mL for ATBs and from 8 µg/mL to 1024 µg/mL for NPs. Then, the microplate was incubated at 37°C for 24 h. After incubation, the plates were gently emptied and washed three times with a phosphate buffer solution at pH 7.2. Then, the MTT solution (0.5 mg/mL) prepared in PBS was introduced into each well, and the microplate was further incubated at 37°C for 24 h. Untreated wells containing bacterial suspension and MHB supplemented with 1% glucose were considered positive controls, and wells containing only MHB+1% glucose without bacteria were used as blanks. After incubation, the MTT solution was aspirated, then 150 µL of DMSO was introduced to dissolve the formazan crystal formed by viable bacteria, and the optical density (OD) was measured at 570 nm using a microplate reader (VERSA-max). The percentage of biofilm inhibition was calculated using the formula below, and the minimal biofilm inhibitory concentration (MBIC) was recorded as the lowest concentration of NPs or ATBs that inhibited 100% of biofilm:(1) % biofilm inhibition=ODcontrol−ODblank−ODtest−ODblank/ODcontrol−ODblank×100.
# S. saprophyticus biofilm [2] = test: Biofilm inhibition assay (MBIC, MTT); format: cell-based, Staphylococcus saprophyticus; conditions: geometric mean, S. saprophyticus (n = 3); for minimal effective concentration: Staphylococcus saprophyticus, 24 h
# Procedure: as §4
# S. epidermidis biofilm [3] = test: Biofilm inhibition assay (MBIC, MTT); format: cell-based, Staphylococcus epidermidis; conditions: geometric mean, S. epidermidis (n = 3); for minimal effective concentration: Staphylococcus epidermidis, 24 h
# Procedure: as §4
# S. aureus biofilm [4] = test: Biofilm eradication assay (MBEC, MTT); format: cell-based, Staphylococcus aureus; conditions: geometric mean, S. aureus (n = 3); for minimal effective concentration: Staphylococcus aureus, 24 h
# Procedure: (§5) The determination of the biofilm eradication potential of NPs and ATBs was performed as previously described. Briefly, 100 µL of bacterial inoculum (1.5 × 10^6 CFU/mL) and 100 µL of MHB + 1% glucose were introduced into the microplate, incubated at 37°C for 24 h, and the microplate was gently emptied and washed three times with PBS. Then, 200 µL of ATBs or NPs at respective concentrations ranging from 8 to 1024 µg/mL and from 16 to 2048 µg/mL were incubated at 37°C for 24 h. Once incubation was completed, the microplate was processed as described above, and the percentage of biofilm eradication was calculated using the formula below. The minimal biofilm eradicating concentration (MBEC) was recorded as the lowest concentration of the test sample that reduces 100% of biofilm:(2) % biofilm eradication=ODcontrol−ODblank−ODtest−ODblank/ODcontrol−ODblank×100.
# S. saprophyticus biofilm [5] = test: Biofilm eradication assay (MBEC, MTT); format: cell-based, Staphylococcus saprophyticus; conditions: geometric mean, S. saprophyticus (n = 3); for minimal effective concentration: Staphylococcus saprophyticus, 24 h
# Procedure: as §5
# S. epidermidis biofilm [6] = test: Biofilm eradication assay (MBEC, MTT); format: cell-based, Staphylococcus epidermidis; conditions: geometric mean, S. epidermidis (n = 3); for minimal effective concentration: Staphylococcus epidermidis, 24 h
# Procedure: as §5
# [7] = system: Staphylococcus aureus biofilm; test: Checkerboard combination assay, biofilm inhibition; format: cell-based
# Procedure: (§6) The effect of the combination of ATBs with NPs on biofilm formation was evaluated by determining the FICI, as described above for planktonic cells, except that the MHB was supplemented with 1% glucose.
# (§7) The lowest MBICs of ATBs or NPs that inhibited metabolic activity in the biofilm were determined as described above. The FICI was used to perform the effect of combination and calculated as follows: FICI: (MBIC of ATBs in combinations/MBIC of ATBs alone) + (MBIC of NP in the combinations/MBIC of NP alone). FICI was interpreted as indicated above.
# [8] = system: Staphylococcus epidermidis biofilm; test: Checkerboard combination assay, biofilm inhibition; format: cell-based
# Procedure: as §6, §7
# [9] = system: Staphylococcus saprophyticus biofilm; test: Checkerboard combination assay, biofilm inhibition; format: cell-based
# Procedure: as §6, §7
# [10] = system: Staphylococcus epidermidis biofilm; test: Checkerboard combination assay, biofilm eradication; format: cell-based
# Procedure: The effect of the combination of ATBs with NPs on the preformed biofilm was evaluated by determining the FICI, as described above for biofilm formation, with slight modifications. After biofilm formation for 24 h, the plate was gently emptied and washed three times with PBS. Then, 50 µL of ATBs and 50 µL of NPs were introduced to the plate. The final concentration ranges from 0.0625 to 128 µg/mL and from 4 to 512 µg/mL for ATBs and NPs, respectively, and is incubated at 37°C for 24 h. After incubation, the medium was gently removed, and the plate was washed three times with PBS. At the end of the incubation time, the MTT reduction assay was performed, and the MBEC was determined. To assess the effect of the combination, the FICI was calculated and interpreted as described above.
# [11] = Staphylococcus saprophyticus, read-out: MIC
# [12] = Staphylococcus epidermidis, read-out: MIC
# [13] = antibiotic alone, S. aureus biofilm inhibition
# [14] = S. epidermidis, biofilm inhibition, mean
# [15] = S. saprophyticus, biofilm inhibition, mean
# [16] = antibiotic alone, S. saprophyticus biofilm inhibition
# [17] = S. epidermidis biofilm eradication, antibiotic alone, mean MBEC
smiles,measurement,setting,value
"Cc1nnc(SCC2=C(C(=O)O)N3C(=O)[C@@H](NC(=O)Cn4cnnn4)[C@H]3SC2)s1 [Cefazolin, cefazolin]",MBC,"S. saprophyticus; Staphylococcus saprophyticus, antibiotics, read-out: MBC",> 128 µg/mL
same,MIC,S. saprophyticus; [11],64.7 µg/mL
same,MBC,"S. epidermidis; Staphylococcus epidermidis, antibiotics, read-out: MBC",139 µg/mL
same,MIC,S. epidermidis; [12],42.7 µg/mL
same,minimal effective concentration,S. aureus biofilm [1],4.66 µg/mL
same,minimal effective concentration,S. saprophyticus biofilm [2],8.53 µg/mL
same,minimal effective concentration,S. epidermidis biofilm [3],8.66 µg/mL
same,minimal effective concentration,S. aureus biofilm [4],42.7 µg/mL
same,minimal effective concentration,S. saprophyticus biofilm [5],10.7 µg/mL
same,minimal effective concentration,S. epidermidis biofilm [6],10.7 µg/mL
same,"MBIC alone, ATB","[7]; S. aureus, biofilm inhibition, mean",4.66 µg/mL
same,"MBIC alone, ATB",[7]; [13],4.66 µg/mL
same,"MBIC alone, ATB",[8]; [14],8.66 µg/mL
same,"MBIC alone, ATB","[8]; antibiotic alone, S. epidermidis biofilm inhibition",8.66 µg/mL
same,"MBIC alone, ATB",[9]; [15],8.33 µg/mL
same,"MBIC alone, ATB",[9]; [16],8.33 µg/mL
same,MBEC Alone ATB,[10]; [17],10.66 µg/mL
same,MBEC Alone ATB,"[10]; S. epidermidis, biofilm eradication, mean",42.66 µg/mL
"NC[C@H]1O[C@H](O[C@H]2[C@H](O)[C@@H](O[C@H]3O[C@H](CO)[C@@H](O)[C@H](N)[C@H]3O)[C@H](N)C[C@@H]2N)[C@H](O)[C@@H](O)[C@@H]1O [Kanamycin, kanamycin]",MBC,S. saprophyticus; antibiotics,— (> 128 µg/mL for ATBs)
same,MIC,S. saprophyticus,14 µg/mL
same,MBC,S. epidermidis; antibiotics,12 µg/mL
same,MIC,S. epidermidis,7.33 µg/mL
same,MBIC,S. aureus biofilm [1],1.08 µg/mL
same,MBIC,S. saprophyticus biofilm [2],4.08 µg/mL
same,MBIC,S. epidermidis biofilm [3],24.66 µg/mL
same,MBEC,S. aureus biofilm [4],14.66 µg/mL
same,MBEC,S. saprophyticus biofilm [5],10.66 µg/mL
same,MBEC,S. epidermidis biofilm [6],13.33 µg/mL
same,"MBIC alone, ATB",[7]; [13],1.83 µg/mL
same,"MBIC alone, ATB",[8]; [14],24.66 µg/mL
same,"MBIC alone, ATB","[8]; antibiotic alone, S. epidermidis biofilm inhibition, listed as Kan",24.66 µg/mL and 43.33 µg/mL
same,"MBIC alone, ATB",[9]; [15],4.08 µg/mL
same,"MBIC alone, ATB",[9]; [16],4.083 µg/mL
same,MBEC Alone ATB,[10]; [17],13.33 µg/mL
"COc1cc(/C=C/C(=O)CC(=O)/C=C/c2ccc(O)c(OC)c2)ccc1O [Curcumin, curcumin]",MIC,S. saprophyticus; [11],171 µg/mL
same,MBC,"S. saprophyticus; Staphylococcus saprophyticus, natural products, read-out: MBC",> 1020 µg/mL
same,MIC,S. epidermidis; [12],384 µg/mL
same,MBC,"S. epidermidis; Staphylococcus epidermidis, natural products, read-out: MBC",> 1020 µg/mL
same,minimal effective concentration,S. aureus biofilm [1],107 µg/mL
same,minimal effective concentration,S. saprophyticus biofilm [2],107 µg/mL
same,minimal effective concentration,S. epidermidis biofilm [3],128 µg/mL
same,minimal effective concentration,S. aureus biofilm [4],149 µg/mL
same,minimal effective concentration,S. saprophyticus biofilm [5],171 µg/mL
same,minimal effective concentration,S. epidermidis biofilm [6],107 µg/mL
same,"MBIC alone, NPs",[8]; [14],128 µg/mL
same,"MBIC alone, NPs","[8]; natural product alone, S. epidermidis biofilm inhibition",128 µg/mL
same,"MBIC alone, NPs",[9]; [15],106.66 µg/mL
same,MBEC Alone NPs,"[10]; S. epidermidis biofilm eradication, natural product alone, mean MBEC, listed as Cur",106.66 µg/mL and 128 µg/mL
